The target of series [1] is T1, Glucose-dependent insulinotropic receptor (Homo sapiens, UniProt Q8TDV5).
T1 sequence (Q8TDV5 whole entry): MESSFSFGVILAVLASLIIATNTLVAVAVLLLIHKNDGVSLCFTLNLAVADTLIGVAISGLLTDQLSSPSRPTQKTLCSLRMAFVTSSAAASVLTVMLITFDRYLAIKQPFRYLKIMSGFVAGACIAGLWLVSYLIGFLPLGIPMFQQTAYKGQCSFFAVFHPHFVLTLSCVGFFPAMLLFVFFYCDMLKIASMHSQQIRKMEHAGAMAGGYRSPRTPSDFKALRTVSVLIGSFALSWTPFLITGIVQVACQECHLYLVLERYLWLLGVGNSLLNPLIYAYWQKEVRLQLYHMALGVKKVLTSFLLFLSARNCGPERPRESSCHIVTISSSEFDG
Put plainly: Agonist activity at human GPR119 expressed in HEK293 cells by luciferase reporter gene assay. The format is cell-based. (In general: Reporter assays use an easily measured gene product as a stand-in for the process of interest.)

The target of series [2] is T1, Glucose-dependent insulinotropic receptor. Put plainly: Agonist activity at human GPR119 expressed in CHOK1 cells co-expressing CRE-luciferase incubated for 4 hrs by luciferase reporter gene assay. The format is functional, cell-based.
Series [3] addresses T2, Glucose-dependent insulinotropic receptor (Homo sapiens) (UniProt Q8TDV5).
T2 sequence (whole entry): T1 sequence (Q8TDV5 whole entry)
The series is described as follows: Agonist activity at human GPR119 expressed in CHOK1 cells co-expressing CRE-luciferase incubated for 4 hrs by luciferase reporter gene assay relative to 100 nM AR231453. The format is functional, cell-based.

Series [4] can be described thus: Volume of distribution at steady state in mouse at 0.5 mg/kg, iv. Type of series: ADME, organism-based. The note with it: in vivo, read-out: Vdss.
Series [5] deals with Mus musculus. Put plainly: Reduction in blood glucose AUC in C57BL/6N mouse at 10 mg/kg dosed 25 mins before glucose challenge and measured over 120 mins post glucose […] by oral glucose tolerance test. Type of series: functional. Set-up: scale not given: the % may be the effect or the level left.
Series [6] in a line: Plasma clearance in mouse at 0.5 mg/kg, iv. Type of series: ADME, organism-based.
A short description of series [7]: Half life in mouse at 0.5 mg/kg, iv. Type of series: ADME, organism-based. The note with it: in vivo.
A short description of series [8]: Clearance in human liver microsomes. The note with it: read-out: CLH. The format is ADME, microsome. A general note: Liver microsomes are a subcellular fraction often used to study metabolism.
The nature of series [9]: Clearance in mouse liver microsomes. The format is ADME, microsome. As to conditions: read-out: CLH.
The nature of series [10]: Oral bioavailability in mouse at 10 mg/kg. Type of series: ADME, organism-based. As to conditions: in vivo.
Series [11] concerns CHO-K1. Put plainly: Cytotoxicity in CHOK1 cells by CCK8 assay. As to conditions: Cricetulus griseus. Type of series: cell-based. Background: Tetrazolium assays rely on reduction of a dye to a coloured formazan, in cell work by metabolically active cells.
Series [12] is described as follows: Cmax in mouse at 10 mg/kg, po. As to conditions: in vivo. Type of series: ADME, organism-based. Further details: dose 10 mg/kg, route oral.
Series [13] can be described thus: AUC in mouse at 10 mg/kg, po. Type of series: ADME, organism-based. The note with it: in vivo.
A short description of series [14]: Drug metabolism in mouse liver microsomes assessed as CYP450-mediated metabolism of ethyl group. Type of series: ADME.
Series [15] is described as follows: Drug metabolism in human liver microsomes assessed as CYP450-mediated metabolism of ethyl group. The format is ADME.
For series [16], the system named is Mus musculus. The series is described as follows: Reduction in blood glucose AUC in C57BL/6N mouse at 30 mg/kg dosed 25 mins before glucose challenge and measured over 120 mins post glucose […] by oral glucose tolerance test. The format is functional. Set-up: scale not given: the % may be the effect or the level left.

One may read the EC50 as the concentration needed to bring the measured effect to its halfway point. Broadly, the Emax is the maximal effect, on the per cent scale that the assay sets. For orientation: clearance means the rate of elimination divided by the concentration. Broadly, the half-life is the time needed for the level to fall by half in the phase considered. As a reminder, the bioavailability is dose-corrected exposure relative to a reference, in per cent. As usually defined, the IC50 is the concentration at which inhibition is half-maximal. By Cmax is commonly meant the maximum level reached in the sampled fluid or tissue. For orientation: AUC means the area under the concentration-time curve, a measure of exposure.

The molecule `CC(C)(C)OC(=O)N1CCC(n2nnc3c(Nc4ccc(S(C)(=O)=O)cc4F)ncnc32)CC1` registered an EC50 in series [1] of 19 nM.
As for `CS(=O)(=O)c1ccc2c(c1)CCN2c1ncnc2c(C3CCN(c4ncccn4)CC3)coc12`, the EC50 in series [2] (read-out: EC50) came out at 512 nM. Moreover, the Emax in [3] came to 196%.
`CS(=O)(=O)c1ccc2c(c1)CCN2c1ncnc2c(C3CCN(c4ncc(Cl)cn4)CC3)coc12`: in [2] (read-out: EC50), the EC50 was determined as 42 nM. Besides, the Emax in series [3] is 117%. In addition, the Vd in series [4] was found to be 2.3 L/kg. In addition, the Activity in series [5] is on record as 33%. Further, the clearance in [6] amounted to 6.5 mL/min/kg. This molecule also gave a half-life in series [7] of 5.1 h. Also, the microsomal CLint came to 113 µL/min/mg in series [8] and 108 µL/min/mg in [9]. The bioavailability in series [10] was 37%. Further, in series [11], the IC50 was above 10000 nM. This molecule came in with a Cmax in series [12] of 2020 ng/mL. In [13], this molecule registered an AUC of 9390 ng·h/mL.
For `CC(C)(C)OC(=O)N1CCC(c2coc3c(N4CCCc5cc(S(C)(=O)=O)ccc54)ncnc23)CC1`, in series [2] (read-out: EC50), the EC50 is 793 nM. The Emax in series [3] turned out to be 1%.
In the case of `CC(C)(C)OC(=O)N1CCC(c2coc3c(N4CC(C)(C)c5cc(S(C)(=O)=O)ccc54)ncnc23)CC1`, the EC50 entry in [2] is given as “Not Active”.
On to `CC(C)(C)OC(=O)N1CCC(c2coc3c(N4c5ccc(S(C)(=O)=O)cc5CC4(C)C)ncnc23)CC1`, for which the EC50 result in series [2] was “Not Active”.
As for `CC(C)(C)OC(=O)N1CCC(c2c[nH]c3c(Nc4ccc(S(C)(=O)=O)cc4F)ncnc23)CC1`, the EC50 in [2] (read-out: EC50) is above 1000 nM. The Emax in series [3] worked out at 9%.
Take `CCCc1cnc(N2CCC(n3nnc4c(Nc5ccc(S(C)(=O)=O)cc5F)ncnc43)CC2)nc1`: the midpoint of the response in series [1], the EC50, lay at 82 nM.
Take `CC(O)c1cnc(N2CCC(c3coc4c(N5CCc6cc(S(C)(=O)=O)ccc65)ncnc34)CC2)nc1` (configuration not stated): in series [2] (read-out: EC50), the EC50 worked out at 586 nM. The molecule further gave an Emax in series [3] of 33%. For the same molecule, the microsomal CLint in series [8] turned out to be 102 µL/min/mg; in series [9], 66 µL/min/mg.
With `CC(C)(C)OC(=O)N1CCC(c2csc3c(Nc4ccc(S(C)(=O)=O)cc4F)ncnc23)CC1`, the EC50 in series [2] (read-out: EC50) was found to be 79 nM. The Emax in series [3] was 82%.
Consider `CC(=O)c1cnc(N2CCC(c3coc4c(N5CCc6cc(S(C)(=O)=O)ccc65)ncnc34)CC2)nc1`, for which the EC50 in series [2] (read-out: EC50) was found to be 78 nM. In addition, in series [3], the Emax stood at 12%. For the same molecule, the microsomal CLint in [8] turned out to be 74 µL/min/mg; in [9] it was 154 µL/min/mg.
`CC(C)(C)OC(=O)N1CCC(c2coc3c(N4CCc5cc(S(C)(=O)=O)ccc54)ncnc23)CC1`: the EC50 in series [2] (read-out: EC50) amounted to 53 nM. Besides, the Emax in series [3] amounted to 123%. Further, the microsomal CLint was determined as 550 µL/min/mg in series [8] and 508 µL/min/mg in [9].
The corresponding values for `COc1cnc(N2CCC(c3coc4c(N5CCc6cc(S(C)(=O)=O)ccc65)ncnc34)CC2)nc1` are 310 nM, 186%, 255 µL/min/mg and 189 µL/min/mg.
Consider `Cn1cc(C2CCN(C(=O)OC(C)(C)C)CC2)c2ncnc(Nc3ccc(S(C)(=O)=O)cc3F)c21`, for which, in series [2] (read-out: EC50), the EC50 is above 1000 nM. This molecule also returned an Emax in series [3] of 3%.
Consider `CN(c1ccc(S(C)(=O)=O)cc1F)c1ncnc2c(C3CCN(C(=O)OC(C)(C)C)CC3)coc12`, for which, in series [2] (read-out: EC50), the EC50 is above 1000 nM. In addition, the Emax in series [3] amounted to 6%.
As for `CCc1cnc(N2CCC(c3coc4c(N5CCc6cc(S(C)(=O)=O)ccc65)ncnc34)CC2)nc1`, the concentration for a half-maximal effect (EC50) in [2] (read-out: EC50) worked out at 41 nM. In series [3], this molecule gave an Emax of 154%. Moreover, the Drug metabolism entry in series [14] and in series [15] was “Metabolite_Detected” in each case. In addition, the microsomal CLint in series [8] was found to be 412 µL/min/mg; in [9], 187 µL/min/mg.
Consider `CC(C)(C)OC(=O)N1CCC(c2coc3c(Nc4ccc(S(C)(=O)=O)cc4F)ncnc23)CC1`, for which the EC50 in series [2] (read-out: EC50) stood at 129 nM. The molecule also had an Emax in series [3] of 123%. Further, the Activity in series [16] is reported as 13%.
In the case of `CS(=O)(=O)c1ccc2c(c1)CCN2c1ncnc2c(C3CCN(c4ncc(F)cn4)CC3)coc12`, the half-maximal effective concentration (EC50) in series [2] (read-out: EC50) is 201 nM. In addition, the Emax in series [3] worked out at 229%. Also, the microsomal CLint in series [8] is 257 µL/min/mg; in series [9], 154 µL/min/mg.
In the same order, the values of `Cc1cnc(N2CCC(c3coc4c(N5CCc6cc(S(C)(=O)=O)ccc65)ncnc34)CC2)nc1` are 252 nM, 159%, 349 µL/min/mg and 145 µL/min/mg.
As to `CC(C)(C)OC(=O)N1CCC(c2noc3c(Nc4ccc(S(C)(=O)=O)cc4F)ncnc23)CC1`, in series [2] (read-out: EC50), the EC50 turned out to be 353 nM. In series [3], the Emax was 137%.
As for `CS(=O)(=O)c1ccc2c(c1)CCN2c1ncnc2c(C3CCN(c4ncc(O)cn4)CC3)coc12`, the EC50 in series [2] (read-out: EC50) stood at 391 nM. In addition, the Emax in series [3] turned out to be 145%. In addition, the microsomal CLint in series [8] was determined as 132 µL/min/mg; in [9] it was 107 µL/min/mg.
